Experimental data as given in patent publication US9963467B2, “Boronic acid derivatives and therapeutic uses thereof” (Rempex Pharmaceuticals, Inc., priority 2014, dated 2018).
Like-named read-outs stand apart in the source and are kept apart here.

Experiments:
ec302 (TEM-10) [1] = assay: Aztreonam potentiation (MPC@4), ec302; format: cell-based; details: BLI with aztreonam at 4 μg/mL
KP1086 (OXA-48) = assay: Biapenem potentiation (MPC@1), KP1086; details: BLI with biapenem at 1 μg/mL
OXA-48 = OXA-48 (Klebsiella pneumoniae, UniProt Q6XEC0); assay: Ki, nitrocefin cleavage by purified enzyme, OXA-48; format: biochemical; details: nitrocefin reporter substrate; read-out: Ki (OXA-48, NCF)
In short: (§1)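 Steps: enzyme plus inhibitor dilutions in reaction buffer; 10 min at room temperature; add nitrocefin; read absorbance at 490 nm each 10 sec for 10 min.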

P99 = P99 (Enterobacter cloacae, UniProt P05364); assay: Ki, nitrocefin cleavage by purified enzyme, P99; format: biochemical; details: nitrocefin reporter substrate; read-out: Ki (P99, NCF)
In short: as §1

KP1009 (CTX-M-15) = assay: Tigemonam potentiation (MPC@4), KP1009; format: cell-based; details: BLI with tigemonam at 4 μg/mL
EC1010 (CMY-6) [2] = assay: Tigemonam potentiation (MPC@4), EC1010; format: cell-based; details: BLI with tigemonam at 4 μg/mL
ECL1002 [3] = assay: Tigemonam potentiation (MPC@4), ECL1002; format: cell-based; details: BLI with tigemonam at 4 μg/mL
ECL1002 [4] = assay: Aztreonam potentiation (MPC@4), ECL1002; format: cell-based; details: BLI with aztreonam at 4 μg/mL
[5] = Intravenous pharmacokinetics; format: in vivo; details: rat, plasma; rats, 20 mg/kg, intravenous infusion over 0.5 hours; read-out: Free Cl (converted)
Method: Rats (n=3 per compound) were administered by a single infusion. Intravenous doses were infused over 0.5 hours via an indwelling femoral vein cannula. […] (˜0.3 mL) samples were collected from each rat at designated time points up to 24 hours. Blood samples were centrifuged within 5 min of collection at 12000 g for 5 min to obtain plasma. The plasma samples were stored at −80° C. until analyzed. Data were analyzed using WinNonlin. The doses of all compounds tested were 20 mg/kg.

[6] = Monomer content of pH adjusted aqueous solutions (LC-UV); format: physicochemical; details: pH adjusted to 7.6 to 8, LC-UV; for % Monomer in 1 mg/mL salt solution: 1 mg/mL aqueous salt solution; for % Monomer in 10 mg/mL salt solution: 10 mg/mL aqueous salt solution; for % Monomer in 100 mg/mL salt solution: 100 mg/mL aqueous salt solution
In short: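 Aqueous solutions at 1.00, 10.0 or 100 mg/mL (active fraction) brought to pH 7.6–8 with acid or base, compound fully dissolved. Injected within half an hour of preparation onto C18 reversed-phase LC (0.1% TFA water / 0.085% TFA methanol gradient); UV detection at 220, 254 and 300 nm.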

KP1005 (CTX-M-14) [7] = assay: Tigemonam potentiation (MPC@4), KP1005; format: cell-based; details: BLI with tigemonam at 4 μg/mL
KPC-2 = KPC-2 (Klebsiella pneumoniae, UniProt Q9F663); assay: Ki, nitrocefin cleavage by purified enzyme, KPC-2; format: biochemical; details: nitrocefin reporter substrate; read-out: Ki (KPC-2, NCF)
In short: as §1

ec308 (SHV-5) = assay: Tigemonam potentiation (MPC@4), ec308; format: cell-based
CTX-M-14 = CTX-M-14 (Escherichia coli, UniProt Q9L5C7); assay: Ki, nitrocefin cleavage by purified enzyme, CTX-M-14; format: biochemical; details: nitrocefin reporter substrate; read-out: Ki (CTX-M-14, NCF)
In short: as §1

ec302 (TEM-10) [8] = assay: Tigemonam potentiation (MPC@4), ec302; format: cell-based
KP1010 (SHV-12) = assay: Tigemonam potentiation (MPC@4), KP1010; format: cell-based
SHV-12 = SHV-12 (Klebsiella pneumoniae, UniProt P0AD64, E235K/G234S/L31Q); assay: Ki, nitrocefin cleavage by purified enzyme, SHV-12; format: biochemical; details: nitrocefin reporter substrate; read-out: Ki (SHV-12, NCF)
In short: as §1

KP1004 (KPC-2) [9] = assay: Biapenem potentiation (MPC@1), KP1004; details: BLI with biapenem at 1 μg/mL
Pa AmpC = Pa AmpC (Pseudomonas aeruginosa, UniProt P24735); assay: Ki, nitrocefin cleavage by purified enzyme, Pa AmpC; format: biochemical; details: nitrocefin reporter substrate; read-out: Ki (Pa AmpC, NCF)
In short: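 Preincubation 10 min RT, purified enzyme with inhibitor series in reaction buffer; reporter nitrocefin; kinetic A490, 10-sec intervals, 10 min; Ki calculated.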

EC1010 (CMY-6) [10] = assay: organism not typed; format: cell-based
KP1004 (KPC-2) [11] = assay: Aztreonam potentiation (MPC@4), KP1004; format: cell-based; details: BLI with aztreonam at 4 μg/mL
KP1005 (CTX-M-14) [12] = assay: Aztreonam potentiation (MPC@4), KP1005; format: cell-based; details: BLI with aztreonam at 4 μg/mL

Chain of P99 (P05364 21-381): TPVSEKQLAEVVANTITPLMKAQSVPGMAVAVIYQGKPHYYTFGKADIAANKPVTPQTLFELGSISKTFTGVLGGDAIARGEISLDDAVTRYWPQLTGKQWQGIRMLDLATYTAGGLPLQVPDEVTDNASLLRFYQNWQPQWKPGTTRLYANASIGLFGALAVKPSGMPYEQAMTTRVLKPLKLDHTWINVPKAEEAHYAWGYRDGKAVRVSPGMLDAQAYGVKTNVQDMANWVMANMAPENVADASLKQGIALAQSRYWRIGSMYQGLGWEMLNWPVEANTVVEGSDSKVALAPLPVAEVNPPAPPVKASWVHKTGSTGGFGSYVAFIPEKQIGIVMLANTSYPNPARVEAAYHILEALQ
Chain of CTX-M-14 (Q9L5C7 29-291): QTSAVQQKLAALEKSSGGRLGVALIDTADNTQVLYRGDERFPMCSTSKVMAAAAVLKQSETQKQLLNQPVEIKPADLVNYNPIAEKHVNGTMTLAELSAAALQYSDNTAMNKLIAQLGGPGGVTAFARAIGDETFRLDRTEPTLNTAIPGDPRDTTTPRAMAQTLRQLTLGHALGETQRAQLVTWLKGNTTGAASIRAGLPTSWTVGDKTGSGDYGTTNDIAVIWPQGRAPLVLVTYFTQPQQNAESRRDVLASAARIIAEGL
Chain of KPC-2 (Q9F663 25-293, looked up, species assumed): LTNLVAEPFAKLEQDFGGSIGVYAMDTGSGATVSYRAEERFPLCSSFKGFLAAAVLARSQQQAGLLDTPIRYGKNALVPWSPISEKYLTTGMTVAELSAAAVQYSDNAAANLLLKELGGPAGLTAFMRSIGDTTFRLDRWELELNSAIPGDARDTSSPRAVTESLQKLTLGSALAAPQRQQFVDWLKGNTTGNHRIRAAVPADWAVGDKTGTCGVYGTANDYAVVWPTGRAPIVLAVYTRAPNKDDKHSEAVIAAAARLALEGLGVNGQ
Chain of OXA-48 (Q6XEC0 23-265, looked up, species assumed): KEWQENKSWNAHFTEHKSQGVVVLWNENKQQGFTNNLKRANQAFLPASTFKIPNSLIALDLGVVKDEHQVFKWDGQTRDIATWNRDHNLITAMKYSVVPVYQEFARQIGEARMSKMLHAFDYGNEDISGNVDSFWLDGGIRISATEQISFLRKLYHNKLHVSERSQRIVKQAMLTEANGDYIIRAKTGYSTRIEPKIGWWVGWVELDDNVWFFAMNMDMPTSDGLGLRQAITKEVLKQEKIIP
Chain of Pa AmpC (P24735 27-397): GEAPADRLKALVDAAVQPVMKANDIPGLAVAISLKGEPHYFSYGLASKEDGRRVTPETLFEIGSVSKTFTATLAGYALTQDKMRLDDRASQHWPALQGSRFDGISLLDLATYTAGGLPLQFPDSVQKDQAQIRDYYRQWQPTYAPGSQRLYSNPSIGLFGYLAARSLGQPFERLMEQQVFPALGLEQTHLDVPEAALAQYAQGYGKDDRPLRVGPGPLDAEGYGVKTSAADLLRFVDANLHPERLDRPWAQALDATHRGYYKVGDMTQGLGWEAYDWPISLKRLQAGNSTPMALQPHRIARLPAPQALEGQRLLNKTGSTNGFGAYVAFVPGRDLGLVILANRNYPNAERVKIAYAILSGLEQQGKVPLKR
Chain of SHV-12 (P0AD64 22-286 L31Q/G234S/E235K): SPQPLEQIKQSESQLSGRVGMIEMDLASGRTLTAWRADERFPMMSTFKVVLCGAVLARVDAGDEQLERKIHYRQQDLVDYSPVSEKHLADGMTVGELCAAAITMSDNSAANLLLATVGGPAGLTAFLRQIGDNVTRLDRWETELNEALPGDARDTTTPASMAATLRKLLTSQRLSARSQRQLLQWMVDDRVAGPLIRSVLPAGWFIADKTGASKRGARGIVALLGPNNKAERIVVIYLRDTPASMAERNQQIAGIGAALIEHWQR

Structure (SMILES)	AZT MPC4 TEM-10 ec302 (ec302 (TEM-10) [1])	BPM MPC1 OXA-48 KP1086 (KP1086 (OXA-48))	Ki (OXA-48) [nM]	Ki (P99) [nM]	TIG MPC4 CTX-M-15 KP1009 (KP1009 (CTX-M-15))	TIG MPC4 CMY-6 EC1010 (EC1010 (CMY-6) [2])	TIG MPC4 ECL1002 (ECL1002 [3])	AZT MPC4 ECL1002 (ECL1002 [4])	clearance [5] [mL/min/kg]	% Monomer in 1 mg/mL salt solution [6] [%]	% Monomer in 10 mg/mL salt solution [6] [%]	TIG MPC4 CTX-M-14 KP1005 (KP1005 (CTX-M-14) [7])	Ki (KPC-2) [nM]	Ki (CTX-M-14) [nM]	Ki (SHV-12) [nM]	BPM MPC1 KP1004 KPC-2 (KP1004 (KPC-2) [9])	Ki (Pa AmpC) [nM]	TIG MPC4 SHV-5 ec308 (ec308 (SHV-5))	TIG MPC4 TEM-10 ec302 (ec302 (TEM-10) [8])	TIG MPC4 SHV-12 KP1010 (KP1010 (SHV-12))	further results
CSCC(=O)N[C@H]1Cc2ccc(F)c(C(=O)O)c2OB1O [Compound 1, (R)-7-fluoro-2-hydroxy-3-(2-(methylthio)acetamido)-3,4-dihydro-2H-benzo[e][1,2]oxaborinine-8-carboxylic acid]	Y (MIC of 1 μg/mL to 10 μg/mL)	Y (MIC of 1 μg/mL to 10 μg/mL)	> 10	> 10	X (MIC of less than 1 μg/mL)	X (MIC of less than 1 μg/mL)	X (MIC of less than 1 μg/mL)	Y (MIC of 1 μg/mL to 10 μg/mL)	14.2	98.0	97.5	X (MIC of less than 1 μg/mL)	> 10	< 1	< 1	X (MIC of less than 1 μg/mL)	–	–	–	–	% Monomer in 100 mg/mL salt solution [6]: 96.4%; TIG MPC4 SHV-5 ec308 (ec308 (SHV-5); BLI with tigemonam at 4 μg/mL): X (MIC of less than 1 μg/mL); TIG MPC4 TEM-10 ec302 (ec302 (TEM-10) [8]; BLI with tigemonam at 4 μg/mL): Y (MIC of 1 μg/mL to 10 μg/mL); TIG MPC4 SHV-12 KP1010 (KP1010 (SHV-12); BLI with tigemonam at 4 μg/mL): X (MIC of less than 1 μg/mL)
O=C(CSC1CNC1)N[C@H]1Cc2ccc(F)c(C(=O)O)c2OB1O [Compound 2, (R)-3-(2-(azetidin-3-ylthio)acetamido)-7-fluoro-2-hydroxy-3,4-dihydro-2H-benzo[e][1,2]oxaborinine-8-carboxylic acid]	Y (MIC of 1 μg/mL to 10 μg/mL)	Y (MIC of 1 μg/mL to 10 μg/mL)	> 10	> 10	X (MIC of less than 1 μg/mL)	X (MIC of less than 1 μg/mL)	X (MIC of less than 1 μg/mL)	Y (MIC of 1 μg/mL to 10 μg/mL)	10.2	–	–	X (MIC of less than 1 μg/mL)	> 10	< 1	< 1	X (MIC of less than 1 μg/mL)	> 10	X (key: X: MIC of less than 1 μg/mL; Y: MIC of 1 μg/mL to 10 μg/mL; Z: MIC of greater than 10 μg/mL)	Y (key: X: MIC of less than 1 ng/mL; Y: MIC of 1 μg/mL to 10 μg/mL; Z: MIC of greater than 10 μg/mL)	X (key: X: MIC of less than 1 μg/mL; Y: MIC of 1 μg/mL to 10 μg/mL; Z: MIC of greater than 10 μg/mL)	AZT MPC4 CMY-6 EC1010 (EC1010 (CMY-6) [10]): Y (key: X: MIC of less than 1 ng/mL; Y: MIC of 1 μg/mL to 10 μg/mL; Z: MIC of greater than 10 μg/mL)
O=C(CSC(F)F)N[C@H]1Cc2ccc(F)c(C(=O)O)c2OB1O [Compound 3, (R)-3-(2-(difluoromethylthio)acetamido)-7-fluoro-2-hydroxy-3,4-dihydro-2H-benzo[e][1,2]oxaborinine-8-carboxylic acid]	X (MIC of less than 1 ng/mL)	Z (MIC of greater than 10 μg/mL)	1 to 10	> 10	X (MIC of less than 1 μg/mL)	X (MIC of less than 1 μg/mL)	Y (MIC of 1 μg/mL to 10 μg/mL)	Y (MIC of 1 μg/mL to 10 μg/mL)	13	99.8	–	X (MIC of less than 1 μg/mL)	> 10	< 1	< 1	X (MIC of less than 1 μg/mL)	> 10	X (key: X: MIC of less than 1 μg/mL; Y: MIC of 1 μg/mL to 10 μg/mL; Z: MIC of greater than 10 μg/mL)	Y (key: X: MIC of less than 1 ng/mL; Y: MIC of 1 μg/mL to 10 μg/mL; Z: MIC of greater than 10 μg/mL)	X (key: X: MIC of less than 1 μg/mL; Y: MIC of 1 μg/mL to 10 μg/mL; Z: MIC of greater than 10 μg/mL)	AZT MPC4 KPC-2 KP1004 (KP1004 (KPC-2) [11]): Y (MIC of 1 μg/mL to 10 μg/mL); AZT MPC4 CMY-6 EC1010 (EC1010 (CMY-6) [10]): Y (key: X: MIC of less than 1 ng/mL; Y: MIC of 1 μg/mL to 10 μg/mL; Z: MIC of greater than 10 μg/mL); AZT MPC4 CTX-M-14 KP1005 (KP1005 (CTX-M-14) [12]): Y (MIC of 1 μg/mL to 10 μg/mL)
COc1ccc2c(c1C(=O)O)OB(O)[C@@H](NC(=O)Cc1cccs1)C2 [Compound 29, (R)-2-hydroxy-7-methoxy-3-(2-(thiophen-2-yl)acetamido)-3,4-dihydro-2H-benzo[e][1,2]oxaborinine-8-carboxylic acid]	X (MIC of less than 1 ng/mL)	Y (MIC of 1 μg/mL to 10 μg/mL)	< 1	1 to 10	X (MIC of less than 1 μg/mL)	X (MIC of less than 1 μg/mL)	X (MIC of less than 1 μg/mL)	–	11.2	99.4	98.6	X (MIC of less than 1 μg/mL)	1 to 10	< 1	< 1	X (MIC of less than 1 μg/mL)	1 to 10	X (key: X: MIC of less than 1 μg/mL; Y: MIC of 1 μg/mL to 10 μg/mL; Z: MIC of greater than 10 μg/mL)	Y (key: X: MIC of less than 1 ng/mL; Y: MIC of 1 μg/mL to 10 μg/mL; Z: MIC of greater than 10 μg/mL)	X (key: X: MIC of less than 1 μg/mL; Y: MIC of 1 μg/mL to 10 μg/mL; Z: MIC of greater than 10 μg/mL)	AZT MPC4 KPC-2 KP1004 (KP1004 (KPC-2) [11]): Y (MIC of 1 μg/mL to 10 μg/mL); % Monomer in 100 mg/mL salt solution [6]: 67.0%
O=C(Cc1cccs1)N[C@H]1Cc2ccc(F)c(C(=O)O)c2OB1O [Compound 30, (R)-7-fluoro-2-hydroxy-3-(2-(thiophen-2-yl)acetamido)-3,4-dihydro-2H-benzo[e][1,2]oxaborinine-8-carboxylic acid]	Y (MIC of 1 μg/mL to 10 μg/mL)	Y (MIC of 1 μg/mL to 10 μg/mL)	< 1	1 to 10	X (MIC of less than 1 μg/mL)	X (MIC of less than 1 μg/mL)	X (MIC of less than 1 μg/mL)	Y (MIC of 1 μg/mL to 10 μg/mL)	23	94.6	93.5	Y (MIC of 1 μg/mL to 10 μg/mL)	1 to 10	< 1	< 1	X (MIC of less than 1 μg/mL)	1 to 10	X (key: X: MIC of less than 1 μg/mL; Y: MIC of 1 μg/mL to 10 μg/mL; Z: MIC of greater than 10 μg/mL)	Y (key: X: MIC of less than 1 ng/mL; Y: MIC of 1 μg/mL to 10 μg/mL; Z: MIC of greater than 10 μg/mL)	X (key: X: MIC of less than 1 μg/mL; Y: MIC of 1 μg/mL to 10 μg/mL; Z: MIC of greater than 10 μg/mL)	AZT MPC4 CMY-6 EC1010 (EC1010 (CMY-6) [10]): Y (key: X: MIC of less than 1 ng/mL; Y: MIC of 1 μg/mL to 10 μg/mL; Z: MIC of greater than 10 μg/mL); % Monomer in 100 mg/mL salt solution [6]: 87.6%
